Experimental data as given in the supplement of paper PMC10307832.

Tests used:
Experiment in all cases: relative viability (nuclei count vs DMSO), 5 days (fraction); higher = more cells survive
RAF265 + Foretinib = compound: Cn1c(Nc2ccc(C(F)(F)F)cc2)nc2cc(Oc3ccnc(-c4ncc(C(F)(F)F)[nH]4)c3)ccc21 [RAF265] + COc1cc2c(Oc3ccc(NC(=O)C4(C(=O)Nc5ccc(F)cc5)CC4)cc3F)ccnc2cc1OCCCN1CCOCC1 [Foretinib] (partner 0.25 µM)
Procedure, shortened: (§1)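 The day after seeding in 1536-well plates, lung cancer cell lines were treated by pin tool with a single drug, or with a fixed anchor-drug dose together with five library-drug doses (not always all listed) in √10 steps. After 5 days, a combined fix-and-stain solution (final 0.05% Triton X-100, 1% formaldehyde, 1 ug/ml Hoechst) was added. Nuclei counted on 4× images gave relative viability as treated counts over vehicle counts, reported as the median of duplicate plates.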

IPA-3 + OSI-027 = compound: C1=CC=C2C(=C1)C=CC(=C2SSC3=C(C=CC4=CC=CC=C43)O)O [IPA-3] + COc1cccc2cc(-c3nc([C@H]4CC[C@H](C(=O)O)CC4)n4ncnc(N)c34)[nH]c12 [OSI-027] (partner 0.5 µM)
Procedure, shortened: as §1

IPA-3 + Decitabine = compound: C1=CC=C2C(=C1)C=CC(=C2SSC3=C(C=CC4=CC=CC=C43)O)O [IPA-3] + Nc1ncn([C@H]2C[C@H](O)[C@@H](CO)O2)c(=O)n1 [Decitabine] (partner 2 µM)
Procedure, shortened: as §1

Doramapimod + Decitabine = compound: Cc1ccc(-n2nc(C(C)(C)C)cc2NC(=O)Nc2ccc(OCCN3CCOCC3)c3ccccc23)cc1 [Doramapimod] + Nc1ncn([C@H]2C[C@H](O)[C@@H](CO)O2)c(=O)n1 [Decitabine] (partner 2 µM)
Procedure, shortened: as §1

| Cell Line | relative viability (RAF265 + Foretinib; first compound 0.01 µM) | relative viability (RAF265 + Foretinib; first compound 0.03162 µM) | relative viability (RAF265 + Foretinib; first compound 0.1 µM) | relative viability (RAF265 + Foretinib; first compound 0.3162 µM) | relative viability (RAF265 + Foretinib; first compound 1 µM) | relative viability (IPA-3 + OSI-027; first compound 0.2 µM) | relative viability (IPA-3 + OSI-027; first compound 0.6325 µM) | relative viability (IPA-3 + OSI-027; first compound 2 µM) | relative viability (IPA-3 + OSI-027; first compound 6.325 µM) | relative viability (IPA-3 + OSI-027; first compound 20 µM) | relative viability (IPA-3 + Decitabine; first compound 0.2 µM) | relative viability (IPA-3 + Decitabine; first compound 0.6325 µM) | relative viability (IPA-3 + Decitabine; first compound 2 µM) | relative viability (IPA-3 + Decitabine; first compound 6.325 µM) | relative viability (IPA-3 + Decitabine; first compound 20 µM) | relative viability (Doramapimod + Decitabine; first compound 0.02 µM) | relative viability (Doramapimod + Decitabine; first compound 0.06325 µM) | relative viability (Doramapimod + Decitabine; first compound 0.2 µM) | relative viability (Doramapimod + Decitabine; first compound 0.6325 µM) | relative viability (Doramapimod + Decitabine; first compound 2 µM) |
| --- | --- | --- | --- | --- | --- | --- | --- | --- | --- | --- | --- | --- | --- | --- | --- | --- | --- | --- | --- | --- |
| HCC-366 | 0.99 | 0.841 | 0.9 | 0.996 | 0.914 | 0.978 | 0.709 | 0.802 | 0.93 | 1.07 | 0.399 | 0.35 | 0.349 | 0.335 | 0.321 | 0.373 | 0.276 | 0.315 | 0.37 | 0.28 |
| HCC-827 | 0.986 | 0.971 | 1.06 |  | 0.729 | 0.842 | 0.69 | 0.773 | 0.724 | 0.703 | 0.359 | 0.34 | 0.33 | 0.312 | 0.327 | 0.34 | 0.38 | 0.326 | 0.243 | 0.211 |
| HOP-62 | 1.14 | 0.979 | 0.973 | 1.04 | 0.852 | 0.985 | 0.808 | 0.937 | 0.783 | 0.616 | 0.193 | 0.213 | 0.231 | 0.229 | 0.235 | 0.267 | 0.268 | 0.176 | 0.208 | 0.211 |
| IA-LM | 1.21 | 0.933 | 1 | 0.946 | 0.769 |  |  |  |  |  |  |  |  |  |  |  |  |  |  |  |
| LC-2-ad | 1.22 | 0.921 | 0.94 | 0.863 | 0.645 | 0.937 | 0.878 | 0.858 | 0.871 | 1.02 | 0.788 | 0.822 | 0.82 | 0.84 | 0.788 | 0.828 | 0.776 | 0.793 | 0.854 | 0.768 |
| LCLC-97TM1 | 0.993 | 0.811 | 0.967 | 0.811 | 0.448 | 0.403 | 0.521 | 0.436 | 0.498 | 0.502 | 0.242 | 0.216 | 0.211 | 0.196 | 0.235 | 0.197 | 0.208 | 0.242 | 0.236 | 0.235 |
| LCLC-103H | 0.802 | 0.587 | 0.645 | 0.504 | 0.39 | 0.442 | 0.444 | 0.463 | 0.486 | 0.505 | 0.703 | 0.684 | 0.749 | 0.748 | 0.638 | 0.714 | 0.704 | 0.719 | 0.742 | 0.654 |
| LK-2 | 1.07 | 1.13 | 0.952 | 1.05 | 0.862 | 0.183 | 0.214 | 0.194 | 0.27 | 0.165 | 0.297 | 0.333 | 0.32 | 0.442 | 0.346 | 0.294 | 0.288 | 0.25 | 0.232 | 0.266 |
| LOU-NH91 | 1.04 | 0.845 | 0.954 | 0.582 | 0.71 | 0.709 | 0.732 | 0.811 | 0.73 | 0.776 | 0.821 | 0.856 | 0.815 | 0.82 | 0.888 | 0.858 | 0.806 | 0.84 | 0.849 | 0.711 |
| LU99A | 0.837 | 0.745 | 0.624 | 0.522 | 0.332 | 0.273 | 0.323 | 0.286 | 0.323 | 0.315 | 0.974 | 0.813 | 0.881 | 0.867 | 0.879 | 0.905 | 0.948 | 0.754 | 0.97 | 0.759 |
| LXF-289 | 0.999 | 0.986 | 0.938 | 0.875 | 0.709 | 0.909 | 0.722 | 0.696 | 0.847 | 0.911 | 0.368 | 0.368 | 0.345 | 0.37 | 0.422 | 0.374 | 0.393 | 0.354 | 0.373 | 0.351 |
| NCI-H23 | 0.741 | 0.847 | 0.739 | 0.724 | 0.442 | 0.591 | 0.544 | 0.577 | 0.571 | 0.533 | 0.285 | 0.313 | 0.319 | 0.329 | 0.299 | 0.359 | 0.288 | 0.358 | 0.329 | 0.265 |
| NCI-H522 |  |  |  |  |  | 0.719 | 0.619 | 0.751 | 0.764 | 0.846 | 0.703 | 0.642 | 0.534 | 0.689 | 0.765 | 0.751 | 0.7 | 0.626 | 0.683 | 0.577 |
| NCI-H1299 | 1.12 | 0.863 | 1.08 | 1.07 | 0.749 |  |  |  |  |  |  |  |  |  |  |  |  |  |  |  |
| NCI-H1563 | 1.05 | 1 | 0.984 | 0.989 | 0.935 | 0.841 | 0.794 | 0.74 | 0.828 | 0.716 |  |  |  |  |  |  |  |  |  |  |
| NCI-H1623 | 0.977 | 0.867 | 0.983 | 0.39 | 0.562 | 0.466 | 0.436 | 0.431 | 0.413 | 0.375 |  |  |  |  |  |  |  |  |  |  |
| NCI-H1648 |  |  |  |  |  | 0.258 | 0.276 | 0.281 | 0.278 | 0.245 | 0.529 | 0.465 | 0.4 | 0.59 | 0.525 | 0.465 | 0.544 | 0.452 | 0.402 | 0.389 |
| NCI-H1703 | 0.335 | 0.318 | 0.351 | 0.357 | 0.253 |  |  |  |  |  |  |  |  |  |  |  |  |  |  |  |
| NCI-H1792 |  |  |  |  |  | 0.789 | 0.718 | 0.641 | 0.711 | 0.792 | 0.72 | 0.46 |  | 0.492 | 0.568 | 0.462 | 0.532 | 0.505 | 0.571 | 0.47 |
| NCI-H2228 | 0.893 | 0.819 | 0.781 | 0.542 | 0.386 | 0.991 | 0.476 | 0.62 | 0.559 | 0.435 |  |  |  |  |  |  |  |  |  |  |
